Experiment: log P, partitioning between octanol and water
Assay type: physicochemical
Settings: octanol/water at 25° C.; usually determined with hexafluorophosphate as counterion
Experimental: To the skilled person, log P is a well known coefficient for describing the partitioning of a compound between octanol and water at ambient temperature (25° C.). Whereby P is the concentration of the bleach catalyst in octanol divided by the concentration of bleach catalyst in water. (Leo et al. Chem Rev 1971, 71, 525). The log P is usually determined in the presence of hexafluorophophate as the counterion.

Compound | log P
Dimanganese-tris-μ-oxo-bis(2-octyl-1,4,7-trimethyl-1,4,7-triazacyclononane) bis(Hexasulphate) [Catalyst 2] | more than 3
CN1CCN(C)CCN(C)CC1.CN1CCN(C)CCN(C)CC1.F[P-](F)(F)(F)(F)F.F[P-](F)(F)(F)(F)F.[Mn+4].[Mn+4].[O-2].[O-2].[O-2] [Catalyst 1, Dimanganese-tris-μ-oxo-bis(1,4,7-trimethyl-1,4,7-triazacyclononane) bis(Hexafluorophosphate)] | less than 3
